# Source: patent US11208412B2 (DAEGU-GYEONGBUK MEDICAL INNOVATION FOUNDATION, priority 2017, dated 2021)
# Tests used:
# Assay in all cases: Kinase selectivity, DiscoverX scanMAX Kinase assay panel (% control)
# Assay type in all cases: binding
# [1] = molecular target: T1, kinases of the scanMAX Kinase assay panel (Homo sapiens, UniProt P57059); settings: kinase SIK; 1 uM in DMSO
# T1 construct: purchased DiscoverX Co. (contract measurement) scanMAX Kinase assay panel
# Outline: (§1)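 Single-point screen, 1 uM cpd in DMSO. % ctrl = (cpd − pos ctrl)/(neg ctrl − pos ctrl)×100; pos ctrl = 0%, DMSO neg ctrl = 100%. Hit cutoff <35%.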
# [2] = molecular target: T2, kinases of the scanMAX Kinase assay panel (Homo sapiens, UniProt P43405); settings: kinase SYK; 1 uM in DMSO
# T2 construct: purchased DiscoverX Co. (contract measurement) scanMAX Kinase assay panel
# Outline: as §1
# [3] = molecular target: T3, kinases of the scanMAX Kinase assay panel (Homo sapiens, UniProt Q8IYT8); settings: kinase ULK2; 1 uM in DMSO
# T3 construct: purchased DiscoverX Co. (contract measurement) scanMAX Kinase assay panel
# T3 sequence (Q8IYT8 1-1036): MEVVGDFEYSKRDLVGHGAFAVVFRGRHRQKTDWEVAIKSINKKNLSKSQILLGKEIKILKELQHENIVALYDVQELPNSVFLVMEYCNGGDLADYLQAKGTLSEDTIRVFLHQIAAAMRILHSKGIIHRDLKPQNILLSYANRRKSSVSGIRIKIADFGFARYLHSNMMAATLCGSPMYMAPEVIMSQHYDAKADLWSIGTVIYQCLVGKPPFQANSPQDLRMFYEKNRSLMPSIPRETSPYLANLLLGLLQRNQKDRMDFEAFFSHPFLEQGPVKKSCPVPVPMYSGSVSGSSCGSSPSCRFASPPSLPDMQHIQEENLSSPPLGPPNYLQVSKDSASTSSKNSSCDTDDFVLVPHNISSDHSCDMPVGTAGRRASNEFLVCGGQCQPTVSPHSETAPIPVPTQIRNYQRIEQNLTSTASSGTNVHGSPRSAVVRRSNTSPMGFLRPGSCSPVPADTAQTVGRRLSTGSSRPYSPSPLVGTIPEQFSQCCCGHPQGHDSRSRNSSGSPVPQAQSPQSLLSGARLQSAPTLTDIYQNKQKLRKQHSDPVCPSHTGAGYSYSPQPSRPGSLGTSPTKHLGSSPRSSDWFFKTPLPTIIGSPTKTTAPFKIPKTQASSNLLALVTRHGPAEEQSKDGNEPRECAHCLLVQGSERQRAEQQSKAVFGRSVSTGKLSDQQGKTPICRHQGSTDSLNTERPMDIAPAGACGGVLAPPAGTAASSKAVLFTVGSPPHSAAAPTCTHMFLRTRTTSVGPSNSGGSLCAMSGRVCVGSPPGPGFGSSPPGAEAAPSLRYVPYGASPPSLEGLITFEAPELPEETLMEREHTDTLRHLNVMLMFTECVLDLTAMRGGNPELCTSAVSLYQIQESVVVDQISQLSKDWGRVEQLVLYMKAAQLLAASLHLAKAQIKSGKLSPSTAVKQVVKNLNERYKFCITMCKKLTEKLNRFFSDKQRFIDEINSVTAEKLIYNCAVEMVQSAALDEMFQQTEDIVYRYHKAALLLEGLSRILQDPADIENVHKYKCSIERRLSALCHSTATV
# Outline: as §1
# [4] = molecular target: T4, kinases of the scanMAX Kinase assay panel (Homo sapiens, UniProt O96013); settings: PAK4; 1 uM
# T4 construct: purchased DiscoverX Co. (contract measurement) scanMAX Kinase assay panel
# T4 sequence (O96013 whole entry): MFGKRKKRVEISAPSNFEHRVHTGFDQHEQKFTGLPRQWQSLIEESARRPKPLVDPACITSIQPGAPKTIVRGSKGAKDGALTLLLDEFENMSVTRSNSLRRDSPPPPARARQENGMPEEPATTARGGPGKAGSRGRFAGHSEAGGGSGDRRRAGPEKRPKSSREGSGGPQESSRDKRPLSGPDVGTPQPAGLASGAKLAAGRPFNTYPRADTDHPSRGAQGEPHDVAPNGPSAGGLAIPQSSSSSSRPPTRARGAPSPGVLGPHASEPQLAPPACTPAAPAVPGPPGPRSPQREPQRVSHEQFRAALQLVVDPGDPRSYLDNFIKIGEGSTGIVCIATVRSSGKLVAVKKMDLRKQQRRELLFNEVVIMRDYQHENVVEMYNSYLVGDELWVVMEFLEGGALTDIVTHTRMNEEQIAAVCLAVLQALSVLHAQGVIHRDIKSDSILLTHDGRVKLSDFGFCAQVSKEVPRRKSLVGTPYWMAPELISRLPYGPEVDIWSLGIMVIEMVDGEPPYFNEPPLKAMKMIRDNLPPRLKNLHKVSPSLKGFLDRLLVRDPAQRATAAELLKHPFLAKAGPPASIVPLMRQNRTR
# Outline: as §1
# [5] = molecular target: T5, kinases of the scanMAX Kinase assay panel (Homo sapiens, UniProt Q9HAZ1); settings: CLK4; 1 uM
# T5 construct: purchased DiscoverX Co. (contract measurement) scanMAX Kinase assay panel
# T5 sequence (Q9HAZ1 whole entry): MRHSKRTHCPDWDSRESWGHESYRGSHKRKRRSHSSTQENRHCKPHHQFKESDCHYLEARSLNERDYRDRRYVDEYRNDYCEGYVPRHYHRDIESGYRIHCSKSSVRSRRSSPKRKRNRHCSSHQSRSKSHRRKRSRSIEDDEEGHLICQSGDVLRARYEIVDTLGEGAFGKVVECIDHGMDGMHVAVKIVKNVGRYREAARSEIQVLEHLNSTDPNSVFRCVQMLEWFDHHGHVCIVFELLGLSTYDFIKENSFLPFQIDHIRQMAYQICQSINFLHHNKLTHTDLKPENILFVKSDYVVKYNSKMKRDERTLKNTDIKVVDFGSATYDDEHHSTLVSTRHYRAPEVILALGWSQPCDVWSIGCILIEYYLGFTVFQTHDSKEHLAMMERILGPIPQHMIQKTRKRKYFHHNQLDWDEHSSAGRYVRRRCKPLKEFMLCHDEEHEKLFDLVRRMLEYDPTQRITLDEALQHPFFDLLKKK
# Outline: as §1
# [6] = molecular target: T6, kinases of the scanMAX Kinase assay panel (Homo sapiens, UniProt P36888); settings: 1 uM
# T6 construct: purchased DiscoverX Co. (contract measurement) scanMAX Kinase assay panel
# T6 sequence (P36888 27-993): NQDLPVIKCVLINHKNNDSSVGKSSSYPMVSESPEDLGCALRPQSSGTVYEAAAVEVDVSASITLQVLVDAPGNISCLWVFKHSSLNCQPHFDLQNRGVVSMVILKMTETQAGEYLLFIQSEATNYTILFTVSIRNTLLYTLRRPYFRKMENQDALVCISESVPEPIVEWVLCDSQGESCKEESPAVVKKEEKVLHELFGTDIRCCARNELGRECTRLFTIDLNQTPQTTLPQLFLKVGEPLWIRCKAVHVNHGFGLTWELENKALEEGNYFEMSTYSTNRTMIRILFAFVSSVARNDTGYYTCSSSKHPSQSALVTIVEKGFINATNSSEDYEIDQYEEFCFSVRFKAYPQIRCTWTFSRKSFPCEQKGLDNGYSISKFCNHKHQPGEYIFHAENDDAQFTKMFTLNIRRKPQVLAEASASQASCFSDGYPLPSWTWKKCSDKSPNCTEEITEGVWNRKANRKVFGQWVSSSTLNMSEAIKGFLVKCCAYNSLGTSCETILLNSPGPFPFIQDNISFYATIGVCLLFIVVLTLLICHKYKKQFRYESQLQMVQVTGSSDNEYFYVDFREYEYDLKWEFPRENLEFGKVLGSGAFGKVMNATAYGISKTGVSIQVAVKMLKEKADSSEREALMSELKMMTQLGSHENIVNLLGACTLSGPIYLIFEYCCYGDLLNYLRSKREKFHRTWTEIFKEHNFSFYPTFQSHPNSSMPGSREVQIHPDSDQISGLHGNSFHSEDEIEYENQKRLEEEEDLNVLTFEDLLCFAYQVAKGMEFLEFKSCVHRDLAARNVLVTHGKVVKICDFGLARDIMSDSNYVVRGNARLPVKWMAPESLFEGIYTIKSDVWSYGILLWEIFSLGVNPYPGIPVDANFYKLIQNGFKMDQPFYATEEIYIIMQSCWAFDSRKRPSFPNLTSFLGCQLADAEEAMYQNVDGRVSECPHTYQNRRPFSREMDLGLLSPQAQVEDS
# Outline: as §1
# T1 sequence (P57059 whole entry): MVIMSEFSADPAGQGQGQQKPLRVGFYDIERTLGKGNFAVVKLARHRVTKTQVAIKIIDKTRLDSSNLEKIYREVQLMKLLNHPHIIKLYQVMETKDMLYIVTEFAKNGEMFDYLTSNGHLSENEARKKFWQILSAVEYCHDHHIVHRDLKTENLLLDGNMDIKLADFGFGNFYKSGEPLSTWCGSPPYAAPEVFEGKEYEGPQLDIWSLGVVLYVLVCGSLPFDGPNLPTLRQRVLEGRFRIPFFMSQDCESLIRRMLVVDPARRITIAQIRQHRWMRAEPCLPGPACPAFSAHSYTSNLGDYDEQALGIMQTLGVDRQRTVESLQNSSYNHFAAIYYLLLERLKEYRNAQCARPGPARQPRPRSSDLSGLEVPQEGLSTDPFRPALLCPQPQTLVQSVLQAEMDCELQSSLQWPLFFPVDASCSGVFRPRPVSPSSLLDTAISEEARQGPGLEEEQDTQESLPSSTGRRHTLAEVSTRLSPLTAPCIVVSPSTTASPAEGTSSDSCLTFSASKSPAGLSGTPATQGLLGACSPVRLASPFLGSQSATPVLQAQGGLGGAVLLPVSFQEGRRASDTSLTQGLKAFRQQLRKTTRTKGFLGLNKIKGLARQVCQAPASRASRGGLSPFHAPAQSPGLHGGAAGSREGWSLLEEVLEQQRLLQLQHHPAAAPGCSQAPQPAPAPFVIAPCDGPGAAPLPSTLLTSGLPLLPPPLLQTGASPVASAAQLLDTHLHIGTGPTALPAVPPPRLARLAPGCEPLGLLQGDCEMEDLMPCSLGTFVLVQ
Structure (SMILES),remaining binding at 1 µM [1] [%],remaining binding at 1 µM [2] [%],remaining binding at 1 µM [3] [%],remaining binding at 1 µM [4] [%],remaining binding at 1 µM [5] [%],remaining binding at 1 µM ([6]; FLT3-autoinhibited) [%],remaining binding at 1 µM ([6]; FLT3) [%]
"CC1(Nc2nc(Nc3cnn([C@H]4CCN(C5COC5)C[C@@H]4F)c3Cl)nc3[nH]cc(C#N)c23)CC1 [Example 52, 2-((5-chloro-1-((3S,4S)-3-fluoro-1-(oxetane-3-yl)piperidine-4-yl)-1H-pyrazole-4-yl)amino)((1-methylcyclopropyl)amino)-7H-pyrrolo[2,3-d]pyrimidine-5-carbonitrile]",78,0.4,15,3.4,1.4,0.3,0.05
"CNc1nc(Nc2ccc(C(=O)N3CCOCC3)cc2OC)nc2[nH]cc(C#N)c12 [Example 1, 2-((2-methoxy-4-(morpholine-4-carbonyl)phenyl)amino)-4-(methylamino)-7H-pyrrolo[2,3-d]pyrimidine-5-carbonitrile]",97,62,75,79,3.4,45,86
"CCNc1nc(Nc2ccc(C(=O)N3CCC(N4CCOCC4)CC3)cc2OC)nc2[nH]cc(C(F)(F)F)c12 [Example 104, (4-((4-(ethylamino)-5-(trifluoromethyl)-7H-pyrrolo[2,3-d]pyrimidine-2-yl)amino)-3-methoxyphenyl)(4-morpholinopiperidine-1-yl)methanone]",100,70,100,100,4.1,76,65
